In ChEMBL document CHEMBL1153020, “Smart conferring of nuclease resistance to DNA by 3'-end protection using 2',4'-bridged nucleoside-5'-triphosphates” (Bioorg Med Chem Lett, 2009):

Assay: Stability assessed as nuclease resistance; call rule not given here
Assay type: ADME

Row | Activity | Compound
1 | Active | Cc1cn([C@@H]2O[C@@]3(COP(=O)(O)OP(=O)(O)OP(=O)(O)O[C@H]4C[C@H](n5cc(C)c(=O)[nH]c5=O)O[C@@H]4COP(=O)(O)O[C@H]4C[C@H](n5cnc6c(=O)[nH]c(N)nc65)O[C@@H]4COP(=O)(O)O[C@H]4C[C@H](n5cnc6c(N)ncnc65)O[C@@H]4COP(=O)(O)O[C@H]4C[C@H](n5cnc6c(=O)[nH]c(N)nc65)O[C@@H]4COP(=O)(O)O[C@H]4C[C@H](n5cc(C)c(=O)[nH]c5=O)O[C@@H]4COP(=O)(O)O[C@H]4[C@@H](O)[C@H](n5cnc6c(=O)[nH]c(N)nc65)O[C@@H]4COP(=O)(O)O[C@H]4[C@@H](O)[C@H](n5cnc6c(N)ncnc65)O[C@@H]4COP(=O)(O)O[C@H]4C[C@H](n5cnc6c(=O)[nH]c(N)nc65)O[C@@H]4COP(=O)(O)O[C@H]4C[C@H](n5cc(C)c(=O)[nH]c5=O)O[C@@H]4COP(=O)(O)O[C@H]4C[C@H](n5cnc6c(N)ncnc65)O[C@@H]4COP(=O)(O)O[C@H]4C[C@H](n5cnc6c(N)ncnc65)O[C@@H]4COP(=O)(O)O[C@H]4C[C@H](n5cnc6c(=O)[nH]c(N)nc65)O[C@@H]4COP(=O)(O)O[C@H]4C[C@H](n5cc(C)c(=O)[nH]c5=O)O[C@@H]4COP(=O)(O)O[C@H]4C[C@H](n5cnc6c(=O)[nH]c(N)nc65)O[C@@H]4COP(=O)(O)O[C@H]4C[C@H](n5cnc6c(N)ncnc65)O[C@@H]4COP(=O)(O)O[C@H]4C[C@H](n5cnc6c(=O)[nH]c(N)nc65)O[C@@H]4COP(=O)(O)O[C@H]4C[C@H](n5cc(C)c(=O)[nH]c5=O)O[C@@H]4COP(=O)(O)O[C@H]4C[C@H](n5cnc6c(=O)[nH]c(N)nc65)O[C@@H]4COP(=O)(O)O[C@H]4C[C@H](n5cnc6c(N)ncnc65)O[C@@H]4COP(=O)(O)O[C@H]4C[C@H](n5cnc6c(=O)[nH]c(N)nc65)O[C@@H]4COP(=O)(O)O[C@H]4C[C@H](n5cc(C)c(=O)[nH]c5=O)O[C@@H]4COP(=O)(O)O[C@H]4C[C@H](n5cc(C)c(=O)[nH]c5=O)O[C@@H]4COP(=O)(O)O[C@H]4C[C@H](n5cnc6c(=O)[nH]c(N)nc65)O[C@@H]4COP(=O)(O)O[C@H]4C[C@H](n5ccc(N)nc5=O)O[C@@H]4COP(=O)(O)O[C@H]4C[C@H](n5cnc6c(=O)[nH]c(N)nc65)O[C@@H]4COP(=O)(O)O[C@H]4C[C@H](n5cnc6c(=O)[nH]c(N)nc65)O[C@@H]4CO)COC2[C@@H]3O)c(=O)[nH]c1=O
2 | Active | Cc1cn([C@@H]2O[C@@]3(COP(=O)(O)OP(=O)(O)OP(=O)(O)O[C@H]4C[C@H](n5cc(C)c(=O)[nH]c5=O)O[C@@H]4COP(=O)(O)O[C@H]4C[C@H](n5cnc6c(=O)[nH]c(N)nc65)O[C@@H]4COP(=O)(O)O[C@H]4C[C@H](n5cnc6c(N)ncnc65)O[C@@H]4COP(=O)(O)O[C@H]4C[C@H](n5cnc6c(=O)[nH]c(N)nc65)O[C@@H]4COP(=O)(O)O[C@H]4C[C@H](n5cc(C)c(=O)[nH]c5=O)O[C@@H]4COP(=O)(O)O[C@H]4[C@@H](O)[C@H](n5cnc6c(=O)[nH]c(N)nc65)O[C@@H]4COP(=O)(O)O[C@H]4[C@@H](O)[C@H](n5cnc6c(N)ncnc65)O[C@@H]4COP(=O)(O)O[C@H]4C[C@H](n5cnc6c(=O)[nH]c(N)nc65)O[C@@H]4COP(=O)(O)O[C@H]4C[C@H](n5cc(C)c(=O)[nH]c5=O)O[C@@H]4COP(=O)(O)O[C@H]4C[C@H](n5cnc6c(N)ncnc65)O[C@@H]4COP(=O)(O)O[C@H]4C[C@H](n5cnc6c(N)ncnc65)O[C@@H]4COP(=O)(O)O[C@H]4C[C@H](n5cnc6c(=O)[nH]c(N)nc65)O[C@@H]4COP(=O)(O)O[C@H]4C[C@H](n5cc(C)c(=O)[nH]c5=O)O[C@@H]4COP(=O)(O)O[C@H]4C[C@H](n5cnc6c(=O)[nH]c(N)nc65)O[C@@H]4COP(=O)(O)O[C@H]4C[C@H](n5cnc6c(N)ncnc65)O[C@@H]4COP(=O)(O)O[C@H]4C[C@H](n5cnc6c(=O)[nH]c(N)nc65)O[C@@H]4COP(=O)(O)O[C@H]4C[C@H](n5cc(C)c(=O)[nH]c5=O)O[C@@H]4COP(=O)(O)O[C@H]4C[C@H](n5cnc6c(=O)[nH]c(N)nc65)O[C@@H]4COP(=O)(O)O[C@H]4C[C@H](n5cnc6c(N)ncnc65)O[C@@H]4COP(=O)(O)O[C@H]4C[C@H](n5cnc6c(=O)[nH]c(N)nc65)O[C@@H]4COP(=O)(O)O[C@H]4C[C@H](n5cc(C)c(=O)[nH]c5=O)O[C@@H]4COP(=O)(O)O[C@H]4C[C@H](n5cc(C)c(=O)[nH]c5=O)O[C@@H]4COP(=O)(O)O[C@H]4C[C@H](n5cnc6c(=O)[nH]c(N)nc65)O[C@@H]4COP(=O)(O)O[C@H]4C[C@H](n5ccc(N)nc5=O)O[C@@H]4COP(=O)(O)O[C@H]4C[C@H](n5cnc6c(=O)[nH]c(N)nc65)O[C@@H]4COP(=O)(O)O[C@H]4C[C@H](n5cnc6c(=O)[nH]c(N)nc65)O[C@@H]4CO)COCOC2[C@@H]3O)c(=O)[nH]c1=O
3 | Active | Cc1cn([C@@H]2O[C@@]3(COP(=O)(O)OP(=O)(O)OP(=O)(O)O[C@H]4C[C@H](n5cc(C)c(=O)[nH]c5=O)O[C@@H]4COP(=O)(O)O[C@H]4C[C@H](n5cnc6c(=O)[nH]c(N)nc65)O[C@@H]4COP(=O)(O)O[C@H]4C[C@H](n5cnc6c(N)ncnc65)O[C@@H]4COP(=O)(O)O[C@H]4C[C@H](n5cnc6c(=O)[nH]c(N)nc65)O[C@@H]4COP(=O)(O)O[C@H]4C[C@H](n5cc(C)c(=O)[nH]c5=O)O[C@@H]4COP(=O)(O)O[C@H]4[C@@H](O)[C@H](n5cnc6c(=O)[nH]c(N)nc65)O[C@@H]4COP(=O)(O)O[C@H]4[C@@H](O)[C@H](n5cnc6c(N)ncnc65)O[C@@H]4COP(=O)(O)O[C@H]4C[C@H](n5cnc6c(=O)[nH]c(N)nc65)O[C@@H]4COP(=O)(O)O[C@H]4C[C@H](n5cc(C)c(=O)[nH]c5=O)O[C@@H]4COP(=O)(O)O[C@H]4C[C@H](n5cnc6c(N)ncnc65)O[C@@H]4COP(=O)(O)O[C@H]4C[C@H](n5cnc6c(N)ncnc65)O[C@@H]4COP(=O)(O)O[C@H]4C[C@H](n5cnc6c(=O)[nH]c(N)nc65)O[C@@H]4COP(=O)(O)O[C@H]4C[C@H](n5cc(C)c(=O)[nH]c5=O)O[C@@H]4COP(=O)(O)O[C@H]4C[C@H](n5cnc6c(=O)[nH]c(N)nc65)O[C@@H]4COP(=O)(O)O[C@H]4C[C@H](n5cnc6c(N)ncnc65)O[C@@H]4COP(=O)(O)O[C@H]4C[C@H](n5cnc6c(=O)[nH]c(N)nc65)O[C@@H]4COP(=O)(O)O[C@H]4C[C@H](n5cc(C)c(=O)[nH]c5=O)O[C@@H]4COP(=O)(O)O[C@H]4C[C@H](n5cnc6c(=O)[nH]c(N)nc65)O[C@@H]4COP(=O)(O)O[C@H]4C[C@H](n5cnc6c(N)ncnc65)O[C@@H]4COP(=O)(O)O[C@H]4C[C@H](n5cnc6c(=O)[nH]c(N)nc65)O[C@@H]4COP(=O)(O)O[C@H]4C[C@H](n5cc(C)c(=O)[nH]c5=O)O[C@@H]4COP(=O)(O)O[C@H]4C[C@H](n5cc(C)c(=O)[nH]c5=O)O[C@@H]4COP(=O)(O)O[C@H]4C[C@H](n5cnc6c(=O)[nH]c(N)nc65)O[C@@H]4COP(=O)(O)O[C@H]4C[C@H](n5ccc(N)nc5=O)O[C@@H]4COP(=O)(O)O[C@H]4C[C@H](n5cnc6c(=O)[nH]c(N)nc65)O[C@@H]4COP(=O)(O)O[C@H]4C[C@H](n5cnc6c(=O)[nH]c(N)nc65)O[C@@H]4CO)NCOC2[C@@H]3O)c(=O)[nH]c1=O
4 | Active | Cc1cn([C@H]2C[C@H](OP(=O)(O)OC[C@H]3O[C@@H](n4cnc5c(=O)[nH]c(N)nc54)C[C@@H]3OP(=O)(O)OC[C@H]3O[C@@H](n4cnc5c(N)ncnc54)C[C@@H]3OP(=O)(O)OC[C@H]3O[C@@H](n4cnc5c(=O)[nH]c(N)nc54)C[C@@H]3OP(=O)(O)OC[C@H]3O[C@@H](n4cc(C)c(=O)[nH]c4=O)C[C@@H]3O)[C@@H](COP(=O)(O)O[C@H]3[C@@H](O)[C@H](n4cnc5c(=O)[nH]c(N)nc54)O[C@@H]3COP(=O)(O)O[C@H]3[C@@H](O)[C@H](n4cnc5c(N)ncnc54)O[C@@H]3COP(=O)(O)O[C@H]3C[C@H](n4cnc5c(=O)[nH]c(N)nc54)O[C@@H]3COP(=O)(O)O[C@H]3C[C@H](n4cc(C)c(=O)[nH]c4=O)O[C@@H]3COP(=O)(O)O[C@H]3C[C@H](n4cnc5c(N)ncnc54)O[C@@H]3COP(=O)(O)O[C@H]3C[C@H](n4cnc5c(N)ncnc54)O[C@@H]3COP(=O)(O)O[C@H]3C[C@H](n4cnc5c(=O)[nH]c(N)nc54)O[C@@H]3COP(=O)(O)O[C@H]3C[C@H](n4cc(C)c(=O)[nH]c4=O)O[C@@H]3COP(=O)(O)O[C@H]3C[C@H](n4cnc5c(=O)[nH]c(N)nc54)O[C@@H]3COP(=O)(O)O[C@H]3C[C@H](n4cnc5c(N)ncnc54)O[C@@H]3COP(=O)(O)O[C@H]3C[C@H](n4cnc5c(=O)[nH]c(N)nc54)O[C@@H]3COP(=O)(O)O[C@H]3C[C@H](n4cc(C)c(=O)[nH]c4=O)O[C@@H]3COP(=O)(O)O[C@H]3C[C@H](n4cnc5c(=O)[nH]c(N)nc54)O[C@@H]3COP(=O)(O)O[C@H]3C[C@H](n4cnc5c(N)ncnc54)O[C@@H]3COP(=O)(O)O[C@H]3C[C@H](n4cnc5c(=O)[nH]c(N)nc54)O[C@@H]3COP(=O)(O)O[C@H]3C[C@H](n4cc(C)c(=O)[nH]c4=O)O[C@@H]3COP(=O)(O)O[C@H]3C[C@H](n4cc(C)c(=O)[nH]c4=O)O[C@@H]3COP(=O)(O)O[C@H]3C[C@H](n4cnc5c(=O)[nH]c(N)nc54)O[C@@H]3COP(=O)(O)O[C@H]3C[C@H](n4ccc(N)nc4=O)O[C@@H]3COP(=O)(O)O[C@H]3C[C@H](n4cnc5c(=O)[nH]c(N)nc54)O[C@@H]3COP(=O)(O)O[C@H]3C[C@H](n4cnc5c(=O)[nH]c(N)nc54)O[C@@H]3CO)O2)c(=O)[nH]c1=O
